Our source for the TGI and GI50 values is PubChem BioAssay (NCI).

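Five compound concentrations were applied to cells in 96-well plates for 48 hours; endpoints were derived by simple linear interpolation of the resulting dose-response curve. At the GI50, growth is halved. TGI: total growth inhibition.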

Among the test systems are A498 renal; HCT-15 colon; HOP-62 NSCLC; NCI-H23 lung; NCI-H460 lung; OVCAR-8 ovarian; RPMI-8226 leukemia; SNB-19 CNS.
Common to all, as to test: NCI-60 cell line screen, 48 h

As for `OCC(O)C(OC1OC(CO)C(O)C(O)C1O)c1nn(-c2ccccc2)c2nc3cc(Cl)c(Cl)cc3cc12` (stereo unspecified), the TGI in the experiment on A498 renal, in the experiment with HCT-15 colon, in the experiment with HOP-62 NSCLC, in the experiment with NCI-H23 lung, in the experiment on NCI-H460 lung and in the experiment on OVCAR-8 ovarian was > 100 µM in each case. The TGI in the experiment with RPMI-8226 leukemia and in the experiment with SNB-19 CNS was > 100 µM throughout.

As for `Cc1ccc(S(=O)(=O)NNC(=O)c2sc(-c3nc(C)c(C(=O)NNS(=O)(=O)c4ccc(C)cc4)s3)nc2C)cc1`, the TGI with A498 renal, with HCT-15 colon, in the experiment with HOP-62 NSCLC, in the experiment on NCI-H23 lung, in the experiment with NCI-H460 lung and in the experiment on OVCAR-8 ovarian was > 100 µM each time. Moreover, the TGI in the experiment with RPMI-8226 leukemia and in the experiment with SNB-19 CNS was > 100 µM throughout.

For `O=C(O)C12C3C4C1C1C2C3C1(Br)C41OCCO1` (stereo unspecified), the TGI with A498 renal, with HOP-62 NSCLC, in the experiment on NCI-H23 lung, in the experiment on NCI-H460 lung, in the experiment on OVCAR-8 ovarian and in the experiment with RPMI-8226 leukemia was > 100 µM each time. The TGI in the experiment with SNB-19 CNS is > 100 µM.

Regarding `NNC(=O)CCC(=O)Nc1cc(Cl)c(Cl)cc1Cl`, the TGI in the experiment with A498 renal, with HCT-15 colon, with HOP-62 NSCLC, with NCI-H23 lung, with NCI-H460 lung and in the experiment with OVCAR-8 ovarian was > 100 µM in each case. For the same compound, the TGI with RPMI-8226 leukemia and in the experiment with SNB-19 CNS was > 100 µM each time.

For `COc1ccc(C2=NN(C(=O)COc3ccc(Cl)cc3)C(O)(c3ccc(Cl)cc3)C2)cc1` (stereo unspecified), the TGI in the experiment on HCT-15 colon, in the experiment with HOP-62 NSCLC, with NCI-H23 lung, with NCI-H460 lung, in the experiment with OVCAR-8 ovarian and in the experiment with RPMI-8226 leukemia was > 100 µM throughout. Besides, in the experiment on SNB-19 CNS, the TGI is > 100 µM.

`N#C/C(=C1\NN=C(N)C(c2ccc(Cl)cc2)=C1O)c1ccc(Cl)cc1`: the TGI with A498 renal, in the experiment with HOP-62 NSCLC, in the experiment on NCI-H23 lung, in the experiment with NCI-H460 lung, in the experiment with OVCAR-8 ovarian and in the experiment with RPMI-8226 leukemia was > 100 µM throughout. Also, the TGI in the experiment on SNB-19 CNS is > 100 µM.

Turning to `COC(=O)C1C2C=CC(C2)C1(C(=O)OC)S(=O)CC12CCC(CC1O)C2(C)C` (stereo unspecified), the TGI in the experiment on A498 renal was > 100 µM; with HCT-15 colon, 37.7 µM; in the experiment on HOP-62 NSCLC it was > 100 µM; with NCI-H23 lung, > 100 µM; in the experiment on NCI-H460 lung, > 100 µM; in the experiment on OVCAR-8 ovarian, > 100 µM. Moreover, the TGI in the experiment with RPMI-8226 leukemia and in the experiment with SNB-19 CNS was > 100 µM throughout.

With `CCCCCCCCC(=O)N(C)C1C2CN3CCC(O2)C13` (stereo unspecified), the TGI with A498 renal, in the experiment with HCT-15 colon, in the experiment with HOP-62 NSCLC, in the experiment on NCI-H23 lung, in the experiment with NCI-H460 lung and in the experiment on RPMI-8226 leukemia was > 100 µM throughout. Besides, the TGI with SNB-19 CNS was > 100 µM.

Take `[C-]#[O+].[C-]#[O+].[C-]#[O+].[C-]#[O+].[Ir].[Ir].[O-]c1ccc2ccccc2c1C=Nc1ccc(N=Cc2c([O-])ccc3ccccc23)cc1`: the GI50 with HCT-15 colon, in the experiment on HOP-62 NSCLC, in the experiment on NCI-H23 lung, in the experiment on NCI-H460 lung, in the experiment with OVCAR-8 ovarian and in the experiment on RPMI-8226 leukemia was > 100 µM each time. Also, in the experiment on SNB-19 CNS, the GI50 was 63.6 µM. Moreover, the TGI in the experiment on HCT-15 colon, in the experiment on HOP-62 NSCLC, in the experiment on NCI-H23 lung, in the experiment with NCI-H460 lung, in the experiment with OVCAR-8 ovarian and in the experiment with RPMI-8226 leukemia was > 100 µM each time. In addition, the TGI with SNB-19 CNS was > 100 µM.

`O/N=C/c1cc2c(cc1Br)OCO2`: the TGI in the experiment on A498 renal, in the experiment on HCT-15 colon, in the experiment on HOP-62 NSCLC, in the experiment with NCI-H23 lung, in the experiment with NCI-H460 lung and in the experiment on OVCAR-8 ovarian was > 100 µM throughout. Moreover, the TGI in the experiment with RPMI-8226 leukemia and with SNB-19 CNS was > 100 µM throughout.

Regarding `CC1CC(c2cccc3c2OCO3)=Nc2ccccc2S1` (stereo unspecified), the TGI in the experiment on A498 renal, in the experiment on HCT-15 colon, in the experiment with NCI-H23 lung, with NCI-H460 lung, in the experiment on OVCAR-8 ovarian and in the experiment on RPMI-8226 leukemia was > 100 µM each time. In addition, the TGI in the experiment with SNB-19 CNS is > 100 µM.

`O=C(O)CCSCCCN1C(=O)c2ccccc2C1=O`: the TGI in the experiment on HCT-15 colon, with NCI-H23 lung, in the experiment on OVCAR-8 ovarian, in the experiment on RPMI-8226 leukemia and with SNB-19 CNS was > 100 µM throughout.

Regarding `O=c1c2cccc3cccc(c4oc5c6cccc7cccc(c(=O)c5c14)c76)c32`, the TGI in the experiment on A498 renal was > 100 µM; in the experiment with HCT-15 colon, 16.9 µM; in the experiment with HOP-62 NSCLC, > 100 µM; in the experiment on NCI-H23 lung, 20.1 µM; in the experiment with NCI-H460 lung, 18.1 µM; with OVCAR-8 ovarian it was 16.1 µM. Further, the TGI amounted to 24.1 µM with RPMI-8226 leukemia and 18.6 µM with SNB-19 CNS.

As to `O=c1c(Sc2c(O)c3ccccc3c3ccccc3c2=O)c(O)c2ccccc2c2ccccc12`, the TGI was > 100 µM with HCT-15 colon; 86.4 µM in the experiment on HOP-62 NSCLC; 94.7 µM in the experiment with NCI-H23 lung; > 100 µM in the experiment with NCI-H460 lung; > 100 µM with OVCAR-8 ovarian; > 100 µM in the experiment on RPMI-8226 leukemia. For the same compound, the TGI in the experiment on SNB-19 CNS was > 100 µM.

For `CC(=O)Nc1ccc(/C=N\N2C(=O)c3ccccc3C2=O)cc1`, the TGI with A498 renal, with HCT-15 colon, in the experiment with HOP-62 NSCLC, in the experiment with NCI-H23 lung, in the experiment with NCI-H460 lung and in the experiment on OVCAR-8 ovarian was > 100 µM throughout. In addition, the TGI with RPMI-8226 leukemia and in the experiment on SNB-19 CNS was > 100 µM throughout.

Regarding `Nc1c(Br)c(=O)[nH]c(=O)n1COCCO`, the TGI in the experiment on HOP-62 NSCLC, in the experiment on NCI-H23 lung, in the experiment on NCI-H460 lung, in the experiment with OVCAR-8 ovarian and with SNB-19 CNS was > 100 µM each time.

For the compound `CC(/C(=N/NC(=O)C(N)=O)c1c(Cl)ccc(Cl)c1O)C1(O)C(=O)Nc2ccccc21` (stereo unspecified), the TGI in the experiment with A498 renal is 76.9 µM; with HCT-15 colon, > 100 µM; in the experiment with HOP-62 NSCLC, > 100 µM; in the experiment on NCI-H23 lung, > 100 µM; in the experiment with NCI-H460 lung, 78.9 µM; in the experiment on OVCAR-8 ovarian, > 100 µM. In addition, the TGI with SNB-19 CNS was > 100 µM.

With `COCC1N=C(c2cc(OC)c(OC)c(OC)c2-c2cc3c(cc2C2OCCCO2)OCO3)O[C@H]1c1ccccc1` (stereo partly specified), the TGI in the experiment with A498 renal, in the experiment with HCT-15 colon, in the experiment on HOP-62 NSCLC, in the experiment with NCI-H23 lung, in the experiment with NCI-H460 lung and with OVCAR-8 ovarian was > 100 µM in each case. Moreover, the TGI in the experiment on RPMI-8226 leukemia and with SNB-19 CNS was > 100 µM each time.

For `O=C(/C=C/c1ccc(Cl)c(Cl)c1)c1ccc(F)cc1`, the TGI was > 100 µM in the experiment on A498 renal; 22.7 µM in the experiment on HCT-15 colon; > 100 µM with HOP-62 NSCLC; 83.2 µM with NCI-H23 lung; 54.9 µM with NCI-H460 lung; 30.8 µM in the experiment on OVCAR-8 ovarian. Also, the TGI with RPMI-8226 leukemia worked out at 12.6 µM; in the experiment with SNB-19 CNS, 32.7 µM.

For `CS(=O)(=O)OCCn1cnc2nc(NC(=O)c3ccccc3)[nH]c(=O)c21`, the TGI with A498 renal, in the experiment on HCT-15 colon, in the experiment with HOP-62 NSCLC, with NCI-H460 lung, in the experiment with OVCAR-8 ovarian and with RPMI-8226 leukemia was > 100 µM in each case. The TGI in the experiment on SNB-19 CNS was > 100 µM.

Take `Fc1cccc2cc3ccc4cccc5ccc(c12)c3c45`: the TGI with A498 renal, in the experiment on HOP-62 NSCLC, in the experiment with NCI-H23 lung, with OVCAR-8 ovarian and in the experiment on SNB-19 CNS was > 100 µM each time.

In the case of `C=C1C(=O)OC2C1CC[C@H](C)C13OC(=O)CC1[C@@]23C` (stereo partly specified), the TGI in the experiment with A498 renal, in the experiment on NCI-H23 lung, with NCI-H460 lung, with OVCAR-8 ovarian, in the experiment on RPMI-8226 leukemia and in the experiment on SNB-19 CNS was > 100 µM throughout.

Consider `CCC(CC)n1cc(C(=O)NC(=O)NCCCCCOC(=O)CCCCCCCCCCC(=O)OCCCCCNC(=O)NC(=O)c2cn(C(CC)CC)c(=O)[nH]c2=O)c(=O)[nH]c1=O`, for which the TGI in the experiment with A498 renal, in the experiment on HCT-15 colon, with HOP-62 NSCLC, in the experiment on NCI-H23 lung, in the experiment with NCI-H460 lung and in the experiment on OVCAR-8 ovarian was > 100 µM each time. In addition, the TGI with RPMI-8226 leukemia and in the experiment on SNB-19 CNS was > 100 µM in each case.

Consider `O=C1OC(CC(=O)c2ccc(Cl)cc2Cl)C(Cl)=C1Cl` (stereo unspecified), for which the TGI is > 100 µM with A498 renal; > 70.6 µM in the experiment on HCT-15 colon; > 100 µM in the experiment with HOP-62 NSCLC; > 65.7 µM in the experiment on NCI-H23 lung; > 100 µM in the experiment with NCI-H460 lung; > 60.2 µM in the experiment with OVCAR-8 ovarian. Also, the results for the TGI in the experiment on RPMI-8226 leukemia and in the experiment on SNB-19 CNS were > 73 µM and > 76.6 µM, respectively.

In the case of `CN(C)CCNC(=O)c1ccc(C(=O)NCCN(C)C)c2nc3ccccc3cc12`, the TGI with A498 renal was found to be 3.93 µM; in the experiment on HCT-15 colon, 16.9 µM; with HOP-62 NSCLC, 4.45 µM; with NCI-H23 lung it was 3.8 µM; with NCI-H460 lung, 2.79 µM; with OVCAR-8 ovarian, 12.7 µM. Moreover, the TGI in the experiment on SNB-19 CNS is 11.3 µM.
